Reference: PMC9783868, “Indoline-5-Sulfonamides: A Role of the Core in Inhibition of Cancer-Related Carbonic Anhydrases, Antiproliferative Activity and Circumventing of Multidrug Resistance” (Pharmaceuticals, 2022)

How the values were obtained:
hCA IX = target: T1, hCA IX (Homo sapiens, UniProt Q16790); experiment: CA inhibition, stopped-flow CO2 hydration assay; format: biochemical
T1 construct: made in house
Description: (§1) The CO2 hydration activity of the four hCA isoforms was monitored using an Applied Photophysics stopped-flow instrument. Phenol red (at a concentration of 0.2 mM) was used as an indicator, working at the absorbance maximum of 557 nm, with 10 mM HEPES (pH 7.4) as a buffer, and 20 mM NaClO4 (for maintaining constant the ionic strength), following the initial rates of the CA-catalyzed CO2 hydration reaction for a period of 10–100 s. To determine the kinetic parameters by Lineweaver-Burk plots and the inhibition constants, a concentration of CO2 between 1.7 to 17 mM was used. At least six measurements of the original 5–10% reaction were used to assess the initial velocity for each inhibitor. The uncatalyzed rates were determined and detracted from the total observed rates. Stock inhibitor solutions (10–100 mM) were prepared in distilled-deionized water, and dilutions up to 0.1 nM were done with the buffer test. […] The inhibition constants were obtained by non-linear least-squares methods using PRISM 6 and the Cheng-Prusoff equation, as reported earlier, and represent the mean from at least three different determinations.

hCA XII = target: T2, hCA XII (Homo sapiens, UniProt O43570); experiment: CA inhibition, stopped-flow CO2 hydration assay; format: biochemical; conditions: stopped-flow technique; mean from three assays
T2 construct: made in house
T2 sequence (O43570 25-354): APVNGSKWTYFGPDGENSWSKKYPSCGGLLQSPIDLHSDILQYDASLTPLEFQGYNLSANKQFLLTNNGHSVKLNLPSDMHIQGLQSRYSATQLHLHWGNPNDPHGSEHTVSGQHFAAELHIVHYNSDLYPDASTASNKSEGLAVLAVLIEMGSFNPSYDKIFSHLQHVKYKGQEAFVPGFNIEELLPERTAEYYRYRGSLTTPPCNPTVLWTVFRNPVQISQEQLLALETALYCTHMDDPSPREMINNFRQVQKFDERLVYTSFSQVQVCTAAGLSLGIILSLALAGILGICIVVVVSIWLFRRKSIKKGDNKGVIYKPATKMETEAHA
Description: as §1

hCA II = target: T3, hCA II (Homo sapiens, UniProt P00918); experiment: CA inhibition, stopped-flow CO2 hydration assay; format: biochemical; conditions: stopped-flow technique; mean from three assays
T3 construct: made in house
Description: as §1

hCA I = target: T4, hCA I (Homo sapiens, UniProt P00915); experiment: CA inhibition, stopped-flow CO2 hydration assay; format: biochemical; conditions: stopped-flow technique; mean from three assays
T4 construct: made in house
T4 sequence (P00915 whole entry): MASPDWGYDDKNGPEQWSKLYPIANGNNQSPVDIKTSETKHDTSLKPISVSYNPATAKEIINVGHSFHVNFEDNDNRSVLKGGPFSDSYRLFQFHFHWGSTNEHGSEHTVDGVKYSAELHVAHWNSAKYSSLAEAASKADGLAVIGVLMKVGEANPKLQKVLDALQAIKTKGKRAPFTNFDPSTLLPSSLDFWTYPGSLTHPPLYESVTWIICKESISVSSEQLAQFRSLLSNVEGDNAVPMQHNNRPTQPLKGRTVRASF
Description: as §1

K562/4 cells = experiment: Reversal of chemoresistance to Dox, MTT test; format: cell-based, human
Excerpt: Earlier, Kopecka and colleagues have shown that CA XII can interact with P-gp and influence its activity. Subsequently, silencing or inhibition of CA XII by chemical agents may restore the sensitivity to Dox of resistant K562 and other tumor cells. Given the potent inhibition of 4f against CA XII and the activity of 4e against K562, we examined their ability to reverse the chemoresistance of K562/4 with P-gp to Dox.
The MCF7 human breast, A431 human skin cancer cells and K562 (ATCC CCL-243) chronic myelogenous leukemia cells were obtained from the ATCC collection. The MDR subline K562/4 [77] (kind gift of Dr. Alexander Shtil, Blokhin N.N. National Medical Research Center of Oncology) was obtained by stepwise selection of K562 cells for survival under continuous exposure to Dox. This subline expresses the MDR1 gene and functional P-gp and is characterized by a high resistance index for Dox. The MCF7 and A431 cells were cultured in standard 4.5 g/L glucose DMEM medium (Gibco) supplemented with 10% FCS (HyClone), 2 mM L-glutamine, 50 U/mL penicillin, 50 µg/mL streptomycin (PanEco), 100 µg/mL sodium pyruvate (Santa Cruz) at 37 °C, 5% CO2 and 80–85% humidity in NuAire incubator. Suspension myelogenous leukemia cells (K562, K562/4) were propagated in RPMI-1640 (PanEco) with 5% FCS (HyClone), 2 mM L-glutamine, 100 U/mL penicillin, and 100 µg/mL streptomycin at 37 °C, 5% CO2, and 80–85% humidity in Binder incubator. Cells in the logarithmic phase of growth were used in the experiments. The growth inhibitory activity of compounds was assessed by the MTT test based on the metabolism of the MTT reagent (3-[4,5-dimethylthiazol-2-yl]-2,5-diphenyltetrazolium bromide) (Applichem) in living cells, with modifications as described previously in [49]. Compounds at different concentrations in 100 μL of the appropriate medium were added, and the cells were grown for 72 h. The hypoxia (1% O2) conditions were simulated in Binder multigas incubator, as described in [49]. After incubation with compounds, the medium was removed, the MTT reagent that was dissolved in the medium was added to the final concentration of 0.2 mg/mL to each well, and the incubation was performed for 2 h. Then the cell supernatants were removed, and purple formazan crystals were dissolved in 100% DMSO (350 μL per well). Culture plates were gently shaken, and the absorbance was measured at 571 nm with a reference wavelength of 630 nm on a MultiScan reader (ThermoFisher, Waltham, MA, USA). The viability of the cells was expressed as a percentage of the control. Dose-response curves were analyzed by regression analysis using sigmoid curves (Log(concentration) vs. normalized absorbance).
Figure 6 Susceptibility of resistant K562/4 line to combinations of Dox (25 µM) with indoline-5-sulfonamides 4e and 4f. […]

A431 skin cancer cells = experiment: Antiproliferative activity, MTT test; format: cell-based, human; conditions: 72 h, hypoxic conditions
Excerpt: To evaluate the influence of CA inhibition on the antiproliferative activity, we selected five compounds 4b, f, m, n and 10 with different inhibition profiles against CA IX for in-depth testing on cancer cells with increased CA IX expression. The database www.proteinatlas.org (accessed on 13 October 2022) contains data on gene expression in various cell lines. According to the data obtained from this database, A431 cells express CA IX at a very high level, which distinguishes them from human cell lines belonging to other tissues [https://www.proteinatlas.org/ENSG00000107159-CA9/cell+line (accessed on 13 October 2022)]. A431 cells are skin cancer cells, and their growth has already been intensely analyzed in hypoxia. […] Moreover, Ren and colleagues described that hypoxia modulates cellular pathways in A431 cells, which are associated with radioresistance and enhanced migration. Given the observations described above, we were expecting to reveal the high antiproliferative activity of the selected compounds against skin cancer cells. […] In hypoxia, the activity of tested compounds was increased, but the 50% inhibition of growth was never achieved.
The MCF7 human breast, A431 human skin cancer cells and K562 (ATCC CCL-243) chronic myelogenous leukemia cells were obtained from the ATCC collection. The MDR subline K562/4 [77] […] The growth inhibitory activity of compounds was assessed by the MTT test based on the metabolism of the MTT reagent (3-[4,5-dimethylthiazol-2-yl]-2,5-diphenyltetrazolium bromide) (Applichem) in living cells, with modifications as described previously in [49]. […] Culture plates were gently shaken, and the absorbance was measured at 571 nm with a reference wavelength of 630 nm on a MultiScan reader (ThermoFisher, Waltham, MA, USA). The viability of the cells was expressed as a percentage of the control. Dose-response curves were analyzed by regression analysis using sigmoid curves (Log(concentration) vs. normalized absorbance).

melting point: > 250 °C | fold higher activity against CA IX compared with 4e (hCA IX; in vitro KI, 4f vs 4e): ~10 fold | Ki (hCA IX; stopped-flow technique, mean from three assays): 141 nM | Ki (hCA XII): 112 nM | Ki (hCA II): 31.3 nM | Ki (hCA I): 304 nM
SMILES: NS(=O)(=O)c1ccc2c(c1)CCN2C(=O)c1cccc(Cl)c1 [Compound 4f, 1-(3-Chlorobenzoyl)indoline-5-sulfonamide]
effect of combination with Dox on viable K562/4 cells (K562/4 cells; combination with Dox (25 µM)): decline of viable K562/4 cells | cytotoxic activity against MDR subline K562/4 as monoagent (K562/4 cells; monoagent): low cytotoxic activity | inhibition of growth of A431 cells, hypoxia (A431 skin cancer cells): 44%
